Measurements published in patent US20230233569A1 (Revolution Medicines, Inc., priority 2020, published 2023).
Several values for one entry are separate records, joined by “and”; a condition that tells them apart may be missing. Equal entries are not always repeated. Where two headings read alike, the source gives them in different places.

Legend:
[1] = target: NRAS Q61R (Homo sapiens, UniProt P01111+P62937, Q61R); assay: Disruption of BRAF RBD interaction with Ras (FRET / MOA assay, with Cyclophilin A); format: biochemical; conditions: NRAS Q61R; read-out: NRAS Q61R FRET data IC50
NRAS Q61R, sequence (P01111 whole entry Q61R): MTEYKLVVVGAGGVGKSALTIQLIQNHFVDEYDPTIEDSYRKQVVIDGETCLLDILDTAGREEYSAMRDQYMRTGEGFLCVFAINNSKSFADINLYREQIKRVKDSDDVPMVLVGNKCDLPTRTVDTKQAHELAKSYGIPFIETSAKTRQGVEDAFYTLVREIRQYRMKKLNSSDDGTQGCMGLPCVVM
NRAS Q61R, sequence (P62937 whole entry): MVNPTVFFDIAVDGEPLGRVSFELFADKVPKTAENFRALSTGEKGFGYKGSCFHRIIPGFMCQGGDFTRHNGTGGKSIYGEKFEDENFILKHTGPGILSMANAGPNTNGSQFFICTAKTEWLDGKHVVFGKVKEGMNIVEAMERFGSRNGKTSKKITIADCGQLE
Procedure, shortened: (§1)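 TR-FRET in 25 mM HEPES pH 7.3, 100 mM NaCl, 5 mM MgCl2, 0.1% BSA: 25 μM Cyclophilin A, 12.5 nM His6-Ras-GMPPNP, 50 nM GST-BRAF RBD with compound (10-point 3-fold series from 30 μM), 3 h at 25° C. Anti-His Eu/anti-GST APC added, 1.5 h more; IC50 from decreased FRET ratio versus DMSO.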

[2] = target: KRAS Q61H (Homo sapiens, UniProt P01116+P62937, Q61H); assay: as above; format: biochemical; conditions: KRAS Q61H; read-out: KRAS Q61H FRET data IC50
KRAS Q61H, sequence (P01116 1-169 isoform P01116-2 Q61H limits assumed): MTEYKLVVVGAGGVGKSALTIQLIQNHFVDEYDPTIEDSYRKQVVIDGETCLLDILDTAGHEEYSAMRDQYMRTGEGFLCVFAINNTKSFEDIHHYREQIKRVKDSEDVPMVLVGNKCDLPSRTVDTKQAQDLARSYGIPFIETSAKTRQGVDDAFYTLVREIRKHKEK
KRAS Q61H, sequence (P62937 whole entry): as the sequence (P62937 whole entry) above
Procedure, shortened: as §1

[3] = target: NRAS WT (Homo sapiens, UniProt P01111+P62937); assay: as above; format: biochemical; conditions: NRAS WT; read-out: NRAS WT FRET data IC50
NRAS WT, sequence (P01111 whole entry): as the sequence (P01111 whole entry Q61R) above, with R61Q counted along it
NRAS WT, sequence (P62937 whole entry): as the sequence (P62937 whole entry) above
Procedure, shortened: as §1

[4] = target: NRAS Q61K (Homo sapiens, UniProt P01111+P62937, Q61K); assay: as above; format: biochemical; conditions: NRAS Q61K; read-out: NRAS Q61K FRET data IC50
NRAS Q61K, sequence (P01111 whole entry Q61K): as the sequence (P01111 whole entry Q61R) above, with R61K counted along it
NRAS Q61K, sequence (P62937 whole entry): as the sequence (P62937 whole entry) above
Procedure, shortened: as §1

[5] = system: NCI-H358 (K-Ras G12C); assay: CellTiter-Glo cell viability assay, 5-day treatment; format: cell-based; conditions: Homo sapiens
Procedure, shortened: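 Compounds were dispensed directly onto seeded cells and incubated for 5 days, then plates were equilibrated to room temperature for about 30 minutes before luminescence reading. Signals were expressed as percent of the mean DMSO control and fitted with a four-parameter logistic curve.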

[6] = target: KRAS G12D (Homo sapiens, UniProt P01116+P62937, G12D); assay: Disruption of BRAF RBD interaction with Ras (FRET / MOA assay, with Cyclophilin A); format: biochemical
KRAS G12D, sequence (P01116 1-169 isoform P01116-2 G12D limits assumed): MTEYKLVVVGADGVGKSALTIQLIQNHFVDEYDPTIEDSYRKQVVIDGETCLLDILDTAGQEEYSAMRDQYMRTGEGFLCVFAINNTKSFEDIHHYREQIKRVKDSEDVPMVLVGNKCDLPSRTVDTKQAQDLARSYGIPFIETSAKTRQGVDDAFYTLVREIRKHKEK
KRAS G12D, sequence (P62937 whole entry): as the sequence (P62937 whole entry) above
Procedure, shortened: (§2)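 Here, compound titrations (ten points, factor 3, from 30 μM final) act on nucleotide-bound K-Ras and Cyclophilin A, and ternary complex formation disrupts the RAF RBD interaction.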

[7] = target: KRAS WT (Homo sapiens, UniProt P01116+P62937); assay: as above; format: biochemical; conditions: KRAS WT; read-out: KRAS WT FRET data IC50
KRAS WT, sequence (P01116 1-169 isoform P01116-2 limits assumed): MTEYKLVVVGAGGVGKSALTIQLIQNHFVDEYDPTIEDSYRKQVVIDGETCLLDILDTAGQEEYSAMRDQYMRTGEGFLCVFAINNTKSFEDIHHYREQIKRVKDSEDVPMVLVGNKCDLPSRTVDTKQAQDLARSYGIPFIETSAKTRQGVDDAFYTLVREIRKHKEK
KRAS WT, sequence (P62937 whole entry): as the sequence (P62937 whole entry) above
Procedure, shortened: as §2

[8] = target: KRAS G13D (Homo sapiens, UniProt P01116+P62937, G13D); assay: as above; format: biochemical
KRAS G13D, sequence (P01116 1-169 isoform P01116-2 G13D limits assumed): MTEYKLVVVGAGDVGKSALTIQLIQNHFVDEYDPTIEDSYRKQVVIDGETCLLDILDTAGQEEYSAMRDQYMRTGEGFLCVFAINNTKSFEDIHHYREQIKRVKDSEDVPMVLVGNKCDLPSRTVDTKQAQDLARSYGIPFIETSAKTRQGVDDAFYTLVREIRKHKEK
KRAS G13D, sequence (P62937 whole entry): as the sequence (P62937 whole entry) above
Procedure, shortened: as §2

[9] = target: KRAS G13C (Homo sapiens, UniProt P01116+P62937, G13C); assay: as above; format: biochemical
KRAS G13C, sequence (P01116 1-169 isoform P01116-2 G13C): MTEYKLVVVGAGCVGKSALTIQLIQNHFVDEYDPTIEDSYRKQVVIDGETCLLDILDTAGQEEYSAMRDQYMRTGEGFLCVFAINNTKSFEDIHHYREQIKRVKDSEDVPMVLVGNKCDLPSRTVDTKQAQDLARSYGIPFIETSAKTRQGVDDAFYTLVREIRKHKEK
KRAS G13C, sequence (P62937 whole entry): as the sequence (P62937 whole entry) above
Procedure, shortened: as §2

[10] = target: KRAS G12C (Homo sapiens, UniProt P01116+P62937, G12C); assay: as above; format: biochemical
KRAS G12C, sequence (P01116 1-169 isoform P01116-2 G12C): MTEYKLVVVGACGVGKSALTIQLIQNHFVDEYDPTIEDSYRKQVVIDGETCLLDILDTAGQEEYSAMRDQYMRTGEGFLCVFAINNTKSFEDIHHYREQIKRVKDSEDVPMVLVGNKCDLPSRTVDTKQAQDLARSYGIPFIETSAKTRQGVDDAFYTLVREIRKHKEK
KRAS G12C, sequence (P62937 whole entry): as the sequence (P62937 whole entry) above
Procedure, shortened: as §2

[11] = target: KRAS G12V (Homo sapiens, UniProt P01116+P62937, G12V); assay: as above; format: biochemical
KRAS G12V, sequence (P01116 1-169 isoform P01116-2 G12V limits assumed): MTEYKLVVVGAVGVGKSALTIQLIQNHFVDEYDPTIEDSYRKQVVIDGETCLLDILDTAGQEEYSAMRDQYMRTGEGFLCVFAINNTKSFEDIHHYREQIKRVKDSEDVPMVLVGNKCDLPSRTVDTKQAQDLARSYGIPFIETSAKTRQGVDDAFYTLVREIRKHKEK
KRAS G12V, sequence (P62937 whole entry): as the sequence (P62937 whole entry) above
Procedure, shortened: as §2

[12] = target: NRAS G12C (Homo sapiens, UniProt P01111+P62937, G12C); assay: as above; format: biochemical
NRAS G12C, sequence (P01111 whole entry G12C): as the sequence (P01111 whole entry Q61R) above, with G12C, R61Q counted along it
NRAS G12C, sequence (P62937 whole entry): as the sequence (P62937 whole entry) above

[13] = target: KRAS G12S (Homo sapiens, UniProt P01116+P62937, G12S); assay: as above; format: biochemical
KRAS G12S, sequence (P01116 1-169 isoform P01116-2 G12S limits assumed): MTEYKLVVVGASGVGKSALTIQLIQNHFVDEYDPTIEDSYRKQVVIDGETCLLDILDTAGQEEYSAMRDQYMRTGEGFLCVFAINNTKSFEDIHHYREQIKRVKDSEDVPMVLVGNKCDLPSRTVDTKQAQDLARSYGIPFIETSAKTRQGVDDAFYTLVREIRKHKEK
KRAS G12S, sequence (P62937 whole entry): as the sequence (P62937 whole entry) above
Procedure, shortened: as §2

[14] = NCI-H358, 120 h, 5-day treatment, read-out: H358 Cell Viability assay data (K-Ras G12C, IC50)
[15] = read-out: KRAS G12D FRET data, IC50
[16] = KRAS G13D, read-out: KRAS G13D FRET data IC50
[17] = read-out: KRAS G13C FRET data, IC50
[18] = read-out: KRAS G12C FRET data, IC50
[19] = KRAS G12V, read-out: KRAS G12V FRET data IC50
[20] = NRAS G12C, read-out: NRAS G12C FRET data IC50
[21] = read-out: KRAS G12S FRET data, IC50
[22] = NCI-H358, H358, K-Ras G12C, read-out: Additional H358 Cell Viability assay data (K-Ras G12C, IC50)
[23] = KRAS G13C, read-out: KRAS G13C FRET data IC50
[24] = KRAS G12C, read-out: KRAS G12C FRET data IC50

IC50 [1] [nM]	IC50 [2] [nM]	IC50 [3] [nM]	IC50 [4] [nM]	IC50 [6, 15]	IC50 [7] [nM]	IC50 [8, 16]	IC50 [11, 19] [nM]	IC50 [12, 20] [nM]	IC50 [13, 21]	IC50 [9, 23] [nM]	IC50 [10, 24]	Compound	also measured
10 to 100	< 10	10 to 100	< 10	–	–	–	–	–	–	–	–	CCn1c(-c2cccnc2[C@H](C)OC)c2c3cc(ccc31)-c1csc(n1)C[C@H](NC(=O)[C@H](C(C)C)N(C)C(=O)N1[C@H](C)COC[C@H]1C)C(=O)N1CCC[C@H](N1)C(=O)OCC(C)(C)C2 (atropisomer, axis not shown) [Example A275]	–
10 to 100	–	10 to 100	10 to 100	–	–	–	–	–	–	–	–	CCn1c(-c2cccnc2[C@H](C)OC)c2c3cc(ccc31)-c1csc(n1)C[C@H](NC(=O)[C@H](C(C)C)N(C)C(=O)N1CC([C@@H](C)OC)C1)C(=O)N1CCC[C@H](N1)C(=O)OCC(C)(C)C2 (atropisomer, axis not shown) [Example A278]	IC50 [5, 14]: < 10 nM
100 to 1000	10 to 100	100 to 1000	10 to 100	–	–	–	–	–	–	–	–	CCn1c(-c2cccnc2[C@H](C)OC)c2c3cc(ccc31)-c1csc(n1)C[C@H](NC(=O)[C@H](C(C)C)N(C)C(=O)N1CC(OC)C1)C(=O)N1CCC[C@H](N1)C(=O)OCC(C)(C)C2 (racemic) [Example A205]	IC50 [5, 14]: < 10 nM
> 10000	> 10000	–	> 10000	–	–	–	–	–	–	–	–	C=CC(=O)N1CC[C@H](C(=O)N(C)[C@H](C(=O)N[C@H]2C[C@H]3CN(CCO3)c3ccc4c(c3)c(c(-c3cccnc3[C@H](C)OC)n4CC)CC(C)(C)COC(=O)[C@@H]3CCCN(N3)C2=O)C(C)C)C1 (racemic) [Example A507]	IC50 ([6]; KRAS G12D FRET data, IC50): > 10000 nM; IC50 ([8]; KRAS G13D FRET data IC50, KRAS G13D): > 10000 nM; IC50 ([9]; KRAS G13C FRET data IC50, KRAS G13C): 1000 to 10000 nM; IC50 ([10]; KRAS G12C FRET data IC50, KRAS G12C): 100 to 1000 nM; IC50 ([11]; KRAS G12V FRET data IC50, KRAS G12V): 1000 to 10000 nM; IC50 ([12]; NRAS G12C FRET data IC50, NRAS G12C): 100 to 1000 nM; IC50 ([13]; KRAS G12S FRET data, IC50): 1000 to 10000 nM; IC50 [5, 22]: 100 to 1000 nM
100 to 1000	10 to 100	–	100 to 1000	100 to 1000 nM	10 to 100	10 to 100 nM	10 to 100	< 10	10 to 100 nM	10 to 100	10 to 100 nM and < 10 nM	C=CC(=O)N1CC[C@H](C(=O)N(C)[C@H](C(=O)N[C@H]2Cc3cc(O)cc(c3)-c3ccc4c(c3)c(c(-c3cnccc3[C@H](C)OC)n4CC)CC(C)(C)COC(=O)[C@@H]3CCCN(N3)C2=O)C(C)C)C1 [Example A076]	–
1000 to 10000	100 to 1000	–	100 to 1000	1000 to 10000 nM	1000 to 10000	–	100 to 1000	–	100 to 1000 nM	100 to 1000	10 to 100 nM	C=CC(=O)N1CC[C@H](C(=O)N(C)[C@H](C(=O)N[C@H]2Cc3cc(O)cc(c3)-c3ccc4c(c3)c(c(-c3ccncc3)n4C(C)(C)C#N)CC(C)(C)COC(=O)[C@@H]3CCCN(N3)C2=O)C(C)C)C1 [Example A086]	–
100 to 1000	10 to 100	–	100 to 1000	100 to 1000 nM	100 to 1000	–	10 to 100	–	10 to 100 nM	100 to 1000	10 to 100 nM	CCn1c(-c2cnccc2COC)c2c3cc(ccc31)-c1cc(O)cc(c1)C[C@H](NC(=O)[C@H](C(C)C)N(C)C(=O)[C@H]1CCN(C(=O)/C=C/CN(C)C)C1)C(=O)N1CCC[C@H](N1)C(=O)OCC(C)(C)C2 [Example A087]	–
1000 to 10000	100 to 1000	100 to 1000	100 to 1000	–	–	–	–	–	–	–	–	CCn1c(-c2cccnc2[C@H](C)OC)c2c3cc(ccc31)-c1cc(O)cc(c1)C[C@H](NC(=O)[C@@H]1[C@H](C)CCN1C(C)=O)C(=O)N1CCC[C@H](N1)C(=O)OCC(C)(C)C2 [Example A144]	–
1000 to 10000	100 to 1000	100 to 1000	1000 to 10000	–	–	–	–	–	–	–	–	CCn1c(-c2cccnc2[C@H](C)OC)c2c3cc(ccc31)-c1cc(O)cc(c1)C[C@H](NC(=O)[C@H](C(C)C)N(C)C(=O)[C@H]1[C@@H]3CNC[C@@H]31)C(=O)N1CCC[C@H](N1)C(=O)OCC(C)(C)C2 [Example A163]	–
> 10000	> 10000	–	> 10000	> 10000 nM	> 10000	> 10000 nM	> 10000	1000 to 10000	> 10000 nM	1000 to 10000	1000 to 10000 nM	C=CS(=O)(=O)N1CC[C@H](C(=O)N(C)[C@H](C(=O)N[C@H]2Cc3cccc(c3)-c3ccc4c(c3)c(c(-c3cncnc3)n4CC)CC(C)(C)COC(=O)[C@@H]3CCCN(N3)C2=O)C(C)C)C1 [Example A171]	IC50 [5, 22]: 100 to 1000 nM
1000 to 10000	100 to 1000	100 to 1000	1000 to 10000	–	–	–	–	–	–	–	–	CCn1c(-c2cccnc2[C@H](C)OC)c2c3cc(ccc31)-c1cc(O)cc(c1)C[C@H](NC(=O)C(C)Cc1ccncc1)C(=O)N1CCC[C@H](N1)C(=O)OCC(C)(C)C2 (stereo partly drawn) [Example A179]	–
1000 to 10000	100 to 1000	1000 to 10000	1000 to 10000	–	–	–	–	–	–	–	–	CCn1c(-c2cccnc2[C@H](C)OC)c2c3cc(ccc31)-c1cc(O)cc(c1)C[C@H](NC(=O)C13CCCC1C3(F)F)C(=O)N1CCC[C@H](N1)C(=O)OCC(C)(C)C2 (stereo partly drawn) [Example A180]	–
1000 to 10000	100 to 1000	100 to 1000	1000 to 10000	1000 to 10000 nM and > 10000 nM	1000 to 10000	1000 to 10000 nM and > 10000 nM	1000 to 10000	1000 to 10000	1000 to 10000 nM and > 10000 nM	–	–	CCn1c(-c2cccnc2[C@H](C)OC)c2c3cc(ccc31)-c1cc(O)cc(c1)C[C@H](NC(=O)C1[C@H]3COC[C@@H]13)C(=O)N1CCC[C@H](N1)C(=O)OCC(C)(C)C2 (stereo partly drawn) [Example A253]	IC50 [9, 17]: 100 to 1000 nM and 1000 to 10000 nM; IC50 [10, 18]: 100 to 1000 nM and 1000 to 10000 nM
100 to 1000	10 to 100	10 to 100	100 to 1000	100 to 1000 nM	10 to 100	10 to 100 nM	100 to 1000	10 to 100	100 to 1000 nM	–	–	CCn1c(-c2cccnc2[C@H](C)OC)c2c3cc(ccc31)-c1cc(O)cc(c1)C[C@H](NC(=O)[C@H](C1CCCC1)N(C)C(=O)N1CCS(=O)(=NC)CC1)C(=O)N1CCC[C@H](N1)C(=O)OCC(C)(C)C2 [Example A426]	IC50 [9, 17]: 10 to 100 nM; IC50 [10, 18]: 10 to 100 nM
10 to 100	10 to 100	–	10 to 100	100 to 1000 nM	100 to 1000	100 to 1000 nM	100 to 1000	< 10	100 to 1000 nM	100 to 1000	10 to 100 nM	C=CC(=O)N1CC2(CCN2C(=O)N(C)[C@H](C(=O)N[C@H]2Cc3nc(n(C)n3)-c3ccc4c(c3)c(c(-c3cccnc3[C@H](C)OC)n4CC)CC(C)(C)COC(=O)C3CCCN(N3)C2=O)C(C)C)C1 (stereo partly drawn) [Example A612]	IC50 [5, 22]: 100 to 1000 nM

Compound	IC50 [1] [nM]	IC50 [2] [nM]	IC50 [3] [nM]	IC50 [4] [nM]	IC50 [6, 15]	IC50 [7] [nM]	IC50 [8, 16]	IC50 [11, 19] [nM]	IC50 [12, 20] [nM]	IC50 [13, 21]	IC50 [9, 23] [nM]	IC50 [10, 24]	also measured
CCn1c(-c2cc(N3CCN(C)CC3)cnc2[C@H](C)OC)c2c3cc(ccc31)-c1csc(n1)C[C@H](NC(C)=O)C(=O)N1CCC[C@H](N1)C(=O)OCC(C)(C)C2 (atropisomer, axis not shown) [Example A340]	> 10000	> 10000	> 10000	> 10000	> 10000 nM	> 10000	> 10000 nM	> 10000	> 10000	> 10000 nM	–	–	IC50 [9, 17]: > 10000 nM; IC50 [10, 18]: > 10000 nM
